Source: patent EP0326331B1, “Substituted quinolines and cinnolines” (Dow AgroSciences LLC, priority 1988, dated 1989)
Like-named read-outs stand apart in the source and are kept apart here.

Key:
Type in all cases: in vivo
[1] = system: Twospotted spider mites (Tetranychus urticae Koch); experiment: Mite/insect screen, SM; details: Tetranychus urticae, percent mortality, read-out: SM RESULTS %; for mortality at 400 ppm: rate 400 ppm
How it was run: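 Read-out: percent mortality after standard exposure periods. Test solutions were water dilutions of compound dissolved in acetone/alcohol (50:50) with emulsifier blends; leaves were sprayed to runoff on both surfaces and air-dried for one hour before exposure.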

[2] = system: Venturia inaequalis (apple scab); experiment: Test 1 greenhouse foliar spray screen, apple scab on apple seedling; details: disease control rating, foliar spray on apple seedling, 400 ppm (+++ at 100 ppm)
[3] = system: Pseudoperonospora cubensis (downy mildew); experiment: Test 1 greenhouse foliar spray screen, downy mildew on squash; details: for DOWN MDEW: disease control rating, foliar spray on squash, 400 ppm (+++ at 100 ppm); for pest or weed control at 400 ppm: Pseudoperonospora cubensis, foliar, Test 1, foliar spray on squash, disease control rating at 400 ppm / 100 ppm, read-out: DOWN MDEW
[4] = system: Septoria tritici (leaf blotch); experiment: Test 1 greenhouse foliar spray screen, leaf blotch on wheat; details: disease control rating, foliar spray on wheat, 400 ppm (+++ at 100 ppm)
[5] = system: corn rootworm; experiment: Mite/insect screen, CRW; details: percent mortality, read-out: CRW RESULTS %; for mortality at 24 ppm: CRW rate 24.00 ppm
How it was run: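 Corn rootworm mortality (%) was evaluated following standard exposure times. Test material was emulsified by dissolution in acetone/alcohol (1:1) containing sulfonate/nonionic emulsifier blends TOXIMUL R (23 g/L) and TOXIMUL S (13 g/L), and water-diluted to the indicated doses.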

[6] = system: Erysiphe graminis tritici (powdery mildew); experiment: Test 1 greenhouse foliar spray screen, powdery mildew on wheat; details: for POWD MDEW: disease control rating, foliar spray on wheat, 400 ppm (+++ at 100 ppm); for pest or weed control at 400 ppm: Blumeria graminis, foliar, Test 1, foliar spray on wheat, disease control rating at 400 ppm / 100 ppm, read-out: POWD MDEW
[7] = system: southern armyworm (Spodopetra eridania Cramer); experiment: Mite/insect screen, SAW; details: Spodoptera eridania, percent mortality, read-out: SAW RESULTS %; for mortality at 400 ppm: rate 400 ppm
How it was run: (§1)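 Percent mortality was scored after standard exposure periods, following spraying of leaves to runoff (both surfaces, 10 psi, 1 h drying) with water dilutions of compound in emulsifier-containing acetone/alcohol (50:50). Armyworms received excised treated leaves in dishes.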

[8] = system: Botrytis cinerea (gray mold); experiment: Test 1 greenhouse foliar spray screen, gray mold on grape berries; details: for GRAY MOLD: disease control rating, spray on grape berries, 400 ppm (+++ at 100 ppm); for pest or weed control at 400 ppm: Botrytis cinerea, foliar, Test 1, spray on grape berries, disease control rating at 400 ppm / 100 ppm
[9] = system: Puccinia recondita tritici (leaf rust); experiment: Test 1 greenhouse foliar spray screen, leaf rust on wheat; details: for LEAF RUST: disease control rating, foliar spray on wheat, 400 ppm (+++ at 100 ppm); for pest or weed control at 400 ppm: Puccinia recondita, foliar, Test 1, foliar spray on wheat, disease control rating at 400 ppm / 100 ppm
[10] = system: Pyricularia oryzae (rice blast); experiment: whole plant or invertebrate; details: for RICE BLAST: disease control rating, foliar spray on rice, 400 ppm (+++ at 100 ppm); for pest or weed control at 400 ppm: Pyricularia oryzae, foliar, read-out: RICE BLAST, Test 1, foliar spray on rice, disease control rating at 400 ppm / 100 ppm
[11] = system: melon aphids (Aphis gossypii Glover); experiment: Mite/insect screen, MA; details: Aphis gossypii, percent mortality, read-out: MA RESULTS %; for mortality at 400 ppm: rate 400 ppm
How it was run: as §1

[12] = foliar, rate 200 ppm, foliar spray on squash

COc1ccc2nccc(NCCc3ccccc3)c2c1 [Example 1, 6-methoxy-N-(2-phenylethyl)-4-quinolineamine]
mortality at 200 ppm ([1]; SAW, SM & MA RATE 200 PPM): 0% | APPL SCAB [2]: - (0-19% control at 400 ppm) | DOWN MDEW [3]: ++ (90-100% control at 400 ppm) | LEAF BLOT [4]: - (0-19% control at 400 ppm) | mortality at 12 ppm ([5]; CRW RATE 12.00 PPM): 0% | POWD MDEW [6]: + (20-89% control at 400 ppm) | mortality at 200 ppm ([7]; SAW, SM & MA RATE 200 PPM): 0% | GRAY MOLD [8]: + (20-89% control at 400 ppm) | LEAF RUST [9]: + (20-89% control at 400 ppm) | RICE BLAST [10]: + (20-89% control at 400 ppm) | mortality at 200 ppm ([11]; SAW, SM & MA RATE 200 PPM): 0%

CCc1ccc2nccc(NCCc3ccccc3)c2c1 [Example 3, 6-ethyl-N-(2-phenylethyl)-4-quinolinamine]
mortality at 200 ppm ([1]; SAW, SM & MA RATE 200 PPM): 0% | APPL SCAB [2]: - (0-19% control at 400 ppm) | DOWN MDEW [3]: +++ (90-100% control at 100 ppm) | LEAF BLOT [4]: - (0-19% control at 400 ppm) | mortality at 12 ppm ([5]; CRW RATE 12.00 PPM): 0% | POWD MDEW [6]: - (0-19% control at 400 ppm) | mortality at 200 ppm ([7]; SAW, SM & MA RATE 200 PPM): 0% | GRAY MOLD [8]: - (0-19% control at 400 ppm) | LEAF RUST [9]: + (20-89% control at 400 ppm) | RICE BLAST [10]: ++ (90-100% control at 400 ppm) | mortality at 200 ppm ([11]; SAW, SM & MA RATE 200 PPM): 0%

CCN(CCc1ccccc1)c1ccnc2ccccc12 [Example 4, N-ethyl-N-(2-phenylethyl)-4-quinolinamine]
mortality at 200 ppm ([1]; SAW, SM & MA RATE 200 PPM): 0% | APPL SCAB [2]: - (0-19% control at 400 ppm) | DOWN MDEW [3]: ++ (90-100% control at 400 ppm) | LEAF BLOT [4]: - (0-19% control at 400 ppm) | mortality at 12 ppm ([5]; CRW RATE 12.00 PPM): 0% | POWD MDEW [6]: + (20-89% control at 400 ppm) | mortality at 200 ppm ([7]; SAW, SM & MA RATE 200 PPM): 0% | GRAY MOLD [8]: - (0-19% control at 400 ppm) | LEAF RUST [9]: ++ (90-100% control at 400 ppm) | RICE BLAST [10]: + (20-89% control at 400 ppm) | mortality at 200 ppm ([11]; SAW, SM & MA RATE 200 PPM): 0%

Cc1cc(NCCc2ccccc2)c2ccccc2n1 [Example 6, 2-methyl-N-(2-phenylethyl)-4-quinolinamine]
mortality at 200 ppm ([1]; SAW, SM & MA RATE 200 PPM): 0% | APPL SCAB [2]: - (0-19% control at 400 ppm) | DOWN MDEW [3]: ++ (90-100% control at 400 ppm) | LEAF BLOT [4]: - (0-19% control at 400 ppm) | mortality at 12 ppm ([5]; CRW RATE 12.00 PPM): 0% | POWD MDEW [6]: ++ (90-100% control at 400 ppm) | mortality at 200 ppm ([7]; SAW, SM & MA RATE 200 PPM): 0% | GRAY MOLD [8]: + (20-89% control at 400 ppm) | LEAF RUST [9]: + (20-89% control at 400 ppm) | RICE BLAST [10]: + (20-89% control at 400 ppm) | mortality at 200 ppm ([11]; SAW, SM & MA RATE 200 PPM): 0%

CC(C)(CNc1ccnc2c(Cl)cccc12)c1ccccc1 [Example 288, 8-chloro-N-(2-methyl-2-phenylpropyl)-4-quinolinamine]
mortality at 200 ppm [1, 12]: 0% | mortality at 400 ppm ([1]; foliar, foliar spray on squash): 0% | pest or weed control at 400 ppm [3]: 20 to 89% | mortality at 12 ppm ([5]; CRW rate 12.00 ppm): 0% | mortality at 24 ppm [5]: 0% | pest or weed control at 400 ppm [6]: 0 to 19% | mortality at 200 ppm [7, 12]: 0% | mortality at 400 ppm ([7]; foliar, foliar spray on squash): 0% | pest or weed control at 400 ppm [8]: 0 to 19% | pest or weed control at 400 ppm [9]: 0 to 19% | pest or weed control at 400 ppm [10]: 20 to 89% | mortality at 200 ppm [11, 12]: 0% | mortality at 400 ppm ([11]; foliar, foliar spray on squash): 0%

CC(C)(CNc1ccnc2c(F)cccc12)c1ccccc1 [Example 289, 8-fluoro-N-(2-methyl-2-phenylpropyl)-4-quinolinamine]
mortality at 200 ppm [1, 12]: 0% | mortality at 400 ppm ([1]; foliar, foliar spray on squash): 0% | pest or weed control at 400 ppm [3]: 90 to 100% | mortality at 12 ppm ([5]; CRW rate 12.00 ppm): 0% | mortality at 24 ppm [5]: 0% | pest or weed control at 400 ppm [6]: 20 to 89% | mortality at 200 ppm [7, 12]: 0% | mortality at 400 ppm ([7]; foliar, foliar spray on squash): 0% | pest or weed control at 400 ppm [8]: 0 to 19% | pest or weed control at 400 ppm [9]: 90 to 100% | pest or weed control at 400 ppm [10]: 90 to 100% | mortality at 200 ppm [11, 12]: 0% | mortality at 400 ppm ([11]; foliar, foliar spray on squash): 0%
